From patent EP4711365A1 (Shanghai Hansoh Biomedical Co., Ltd., priority 2023, dated 2024) come the findings set out here.

One experiment concerns Groα secretion by HT-29 cells. Briefly: Inhibition of Groα secretion by HT-29 cells stimulated with IL-17A (ELISA). Format: cell-based, Human. The conditions noted are these: Homo sapiens, HT-29, 48 h, IL-17A 30 ng/ml, Groα in supernatant. The protocol:
Test example 2 Assay for inhibitory effect of compounds of the present invention against Groα secretion by HT-29 cells
Experimental objective: to measure the inhibitory effect of the compounds against Groα secretion by HT-29 cells, thereby evaluating the inhibition of the compounds on IL-17A pathway.
Experimental method: A cell suspension at 50,000 cells/ml was prepared, and 200 µl of the cell suspension was added to each well of a 96-well plate, i.e., 10,000 cells/well. The plate was cultured overnight. In the 96-well V-bottom plate, 5 mM compound solution was serially diluted 3-fold using DMSO, and the compound from each well was diluted 100-fold using a complete culture medium. IL-17A protein (R&D, #BT7955-025/CF) with a stock concentration of 100 µg/ml was diluted 333.33-fold using a complete culture medium. The compound and IL-17A were mixed at a volume ratio of 1:1 and incubated at 37°C for 30 minutes. 50 µl of a mixture of the compound and IL-17A was added to cell wells, and the final concentration of IL-17A protein was 30 ng/ml.
The mixture was incubated in a 37°C, 5% CO2 cell culture incubator for 48 hours. The concentration of Groα in the supernatant was determined by ELISA method using Human Groα Valukin Elisa kit (Biotechne, # VAL139), and the absorbance intensity at 450 nm was measured using a microplate reader (PE, EnVision2105). Data were analysed using GraphPad Prism 8.3.0.
Experimental data processing method: Data were analysed using GraphPad Prism 8.3.0.
Inhibition rate% = [(average value of positive control wells - value of sample wells)/(average value of positive control wells - average value of negative control wells)] × 100%, where the sample wells are wells containing cells plus compounds at different concentration gradients, the positive control wells are wells containing cells plus IL-17A, and the negative control wells are wells containing culture medium plus IL-17A.
Curve fitting: The IC50 value was obtained by curve fitting based on the inhibition rate (%) at each concentration using the log(inhibitor) vs. responseVariable slope (four parameters) in GraphPad Prism 6.0, and the calculation equation was Y = Bottom + (Top-Bottom)/(1+10^((LogIC50-X)*HillSlope)).
Background: In an ELISA, binding on a coated surface is turned into a signal by an enzyme label.
The term IC50 denotes the concentration needed to halve the response being measured. A high value points to weaker potency in that assay. Compound `[2H]C1([2H])NC(=O)N([C@H](COC)c2cnc(NC(=O)[C@@H](NC(=O)c3ccnn3C(C)C)C3CCC(F)(F)CC3)s2)C([2H])([2H])C1(F)F` [Example 259, N-((S)-2-((5-((R)-1-(5,5-difluoro-2-carbonyltetrahydropyrimidin-1(2H)-yl-4,4,6,6-d4)-2-methoxyethyl)thiazol-2-yl)amino)-1-(4,4-difluorocyclohexyl)-2-carbonylethyl)-1-isopropyl-1H-pyrazole-5-carboxamide] gave a 50% inhibitory concentration (IC50) of 5.5 nM.

`CCc1nonc1C(=O)N[C@H](C(=O)Nc1ncc(C(C2CCS(=O)(=O)CC2)n2cc(Cl)ccc2=O)s1)[C@H]1CC[C@H](C)CC1` (stereo partly shown) [Example 540-1] registered a half-inhibitory concentration (IC50) of 8 nM.

Compound `COCCC(c1cnc(NC(=C=O)[C@@H](NC(=O)c2ccnn2C(C)C)C2CCCCC2)s1)N1C[C@@H](C(F)(F)F)NC1=C=O` (stereo partly drawn) [Example 564, N-((1S)-1-cyclohexyl-2-((5-(3-methoxy-1-((S)-2-carbonyl-4-(trifluoromethyl)imidazolidin-1-yl)propyl)thiazol-2-yl)amino)-2-carbonylethyl)-1-isopropyl-1H-pyrazole-5-carboxamide] displayed an IC50 of 5.9 nM.

On to `COC[C@H](c1cnc(NC(=O)[C@@H](NC(=O)c2ccnn2C(C)C)C2CCCCC2)s1)N1CC(F)(F)CNC1=O` [Example 565], for which the IC50 was determined as 4 nM.

For the compound `[2H]C([2H])([2H])C([2H])([2H])n1nccc1C(=O)N[C@H](C(=O)Nc1ncc([C@@H](CN2CCOCC2)n2cc(Cl)ccc2=O)s1)[C@H]1CC[C@H](C)CC1` [Example 574], the IC50 came to 5 nM.

As to `[2H]C([2H])([2H])C([2H])([2H])n1nccc1C(=O)N[C@H](C(=O)Nc1ncc(C(COC)n2cc(Cl)ccc2=O)s1)[C@H]1CC[C@H](C)CC1` (stereo partly shown) [Example 586-1], the IC50 was 8.4 nM.

In the case of `CCn1nccc1C(=O)N[C@H](C(=O)Nc1ncc([C@@H](CN2CCC(OC)CC2)n2cc(Cl)ccc2=O)s1)[C@H]1CC[C@H](C)CC1` [Example 634], the half-inhibitory concentration (IC50) amounted to 2.5 nM.

On to `CCn1nccc1C(=O)N[C@H](C(=O)Nc1ncc([C@@H](CN(C)C)n2cc(Cl)ccc2=O)s1)[C@H]1CC[C@H](C)CC1` [Example 644], for which it took 3.8 nM to reach half-maximal inhibition (IC50).

Consider `CCn1nccc1C(=O)NC(C(=O)Nc1ncc(C(CN2CCC(OC)C2)N2CC(F)(F)CCC2=O)s1)C1CCC(C)CC1` (stereo not shown) [Example 648], for which the half-maximal inhibitory concentration (IC50) is 9.6 nM.

`CCn1nccc1C(=O)N[C@H](C(=O)Nc1ncc([C@@H](CN2CCC(C(=O)O)CC2)n2cc(Cl)ccc2=O)s1)[C@H]1CC[C@H](C)CC1` [Example 663] had an IC50 of 1.6 nM.

Take `CCn1nccc1C(=O)N[C@H](C(=O)Nc1ncc([C@@H](COC)n2cc(Cl)ccc2=O)s1)[C@H]1CC[C@H](C)CC1` [Example 689]: the IC50 was 5.2 nM.

`C[C@H]1CC[C@H]([C@H](NC(=O)C2(F)CC2)C(=O)Nc2ncc([C@@H](CN3CCC(CF)CC3)N3CC(F)(F)CNC3=O)s2)CC1` [Example 767] had an IC50 of 7 nM.

`[2H]C([2H])([2H])C([2H])([2H])n1nccc1C(=O)N[C@H](C(=O)Nc1ncc([C@@H](CN2CCO[C@H](CF)C2)N2CC(F)(F)CCC2=O)s1)[C@H]1CC[C@H](C)CC1` [Example 820, N-((S)-2-((5-((R)-1-(5,5-difluoro-2-oxopiperidin-1-yl)-2-((S)-2-(fluoromethyl)morpholino)ethyl)thiazol-2-yl)amino)-1-((1r,4S)-4-methylcyclohexyl)-2-oxoethyl)-1-(ethyl-d5)-1H-pyrazole-5-carboxamide] came in with an IC50 of 3 nM.

With `[2H]C([2H])([2H])C([2H])([2H])n1nccc1C(=O)N[C@H](C(=O)Nc1ncc([C@@H](CN2C[C@H](C)OC[C@@H]2C)N2CC(F)(F)CCC2=O)s1)[C@H]1CC[C@H](C)CC1` [Example 860, N-((S)-2-((5-((R)-1-(5,5-difluoro-2-oxopiperidin-1-yl)-2-((2S,5S)-2,5-dimethylmorpholino)ethyl)thiazol-2-yl)amino)-1-((1r,4S)-4-methylcyclohexyl)-2-oxoethyl)-1-(ethyl-d5)-1H-pyrazole-5-carboxamide], half-maximal inhibition (IC50) was put at 2 nM.

Compound `[2H]C([2H])([2H])C([2H])([2H])n1nccc1C(=O)N[C@H](C(=O)Nc1ncc([C@@H](CN2C[C@@H](C)OC[C@H]2C)N2CC(F)(F)CCC2=O)s1)[C@H]1CC[C@H](C)CC1` [Example 862, N-((S)-2-((5-((R)-1-(5,5-difluoro-2-oxopiperidin-1-yl)-2-((2R,5R)-2,5-dimethylmorpholino)ethyl)thiazol-2-yl)amino)-1-((1r,4S)-4-methylcyclohexyl)-2-oxoethyl)-1-(ethyl-d5)-1H-pyrazole-5-carboxamide] returned an IC50 of 2.7 nM.

The compound `CCn1nccc1C(=O)N[C@H](C(=O)Nc1ncc([C@@H](CN2C[C@@H](C)OC[C@H]2C)N2CC(F)(F)CCC2=O)s1)[C@H]1CC[C@H](C)CC1` [Example 863] yielded an IC50 of 3.2 nM.

Regarding `[2H]C([2H])([2H])C([2H])([2H])n1nccc1C(=O)N[C@H](C(=O)Nc1ncc([C@@H](CN2CCC(F)(F)CC2)N2CC(F)(F)CCC2=O)s1)[C@H]1CC[C@H](C)CC1` [Example 913], the IC50 came out at 3.5 nM.

Compound `[2H]C([2H])([2H])C([2H])([2H])n1nccc1C(=O)N[C@H](C(=O)Nc1ncc([C@@H](CN2CCC(F)CC2)N2CC(F)(F)CCC2=O)s1)[C@H]1CC[C@H](C)CC1` [Example 919] yielded an IC50 of 4 nM.

For the compound `[2H]C([2H])([2H])C([2H])([2H])n1nccc1C(=O)NC(C(=O)Nc1ncc(C(CN2CCC3C(C2)C3(F)F)N2CC(F)(F)CCC2=O)s1)C1CCC(C)CC1` (stereo not shown) [Example 970], the 50% inhibitory concentration (IC50) was determined as 4 nM.

On to `[2H]C([2H])([2H])C([2H])([2H])n1nccc1C(=O)N[C@H](C(=O)Nc1ncc([C@@H](CN2CCC(=C(F)F)CC2)N2CC(F)(F)CCC2=O)s1)[C@H]1CC[C@H](C)CC1` [Example 980], for which it took 5 nM to reach half-maximal inhibition (IC50).

For the compound `[2H]C([2H])([2H])OC1CCN(C[C@H](c2cnc(NC(=O)[C@@H](NC(=O)c3ccnn3C([2H])([2H])C([2H])([2H])[2H])[C@H]3CC[C@H](C)CC3)s2)N2CC(F)(F)CCC2=O)CC1` [Example 986], the IC50 was 9 nM.

`[2H]C([2H])([2H])OC1(C)CCN(C[C@H](c2cnc(NC(=O)[C@@H](NC(=O)c3ccnn3C([2H])([2H])C([2H])([2H])[2H])[C@H]3CC[C@H](C)CC3)s2)N2CC(F)(F)CCC2=O)CC1` [Example 988] came in with an IC50 of 8.8 nM.

`C[C@H]1CC[C@H]([C@H](NC(=O)C2(F)CC2)C(=O)Nc2ncc([C@@H](CN3CCC4(CC3)CC4(F)F)N3CC(F)(F)CNC3=O)s2)CC1` [Example 1016] showed an IC50 of 2 nM.

In turn, `CCn1nccc1C(=O)N[C@H](C(=O)Nc1ncc([C@@H](CN2CCC3(CC2)OCCO3)n2cc(Cl)ccc2=O)s1)[C@H]1CC[C@H](C)CC1` [Example 1020] registered an IC50 of 2.5 nM.

The compound `CCn1nccc1C(=O)N[C@H](C(=O)Nc1ncc([C@@H](CN2CCCCC2)N2CC(F)(F)CCC2=O)s1)[C@H]1CC[C@H](C)CC1` [Example 1021] returned an IC50 of 8.5 nM.

As to `CCn1nccc1C(=O)N[C@H](C(=O)Nc1ncc([C@@H](CN2CCCC2)N2CC(F)(F)CCC2=O)s1)[C@H]1CC[C@H](C)CC1` [Example 1022], the IC50 stood at 10 nM.

Compound `CCn1nccc1C(=O)N[C@H](C(=O)Nc1ncc([C@@H](CN(C)CCOC)N2CC(F)(F)CCC2=O)s1)[C@H]1CC[C@H](C)CC1` [Example 1023] returned an IC50 of 10 nM.

As for `COCCN(C)C[C@H](c1cnc(NC(=O)[C@@H](NC(=O)c2ccnn2C)[C@H]2CC[C@H](C)CC2)s1)N1CC(F)(F)CCC1=O` [Example 1024], half-maximal inhibition (IC50) was put at 7 nM.

Take `[2H]C([2H])([2H])n1nccc1C(=O)N[C@H](C(=O)Nc1ncc([C@@H](CN2CCOCC2)N2CC(F)(F)CCC2=O)s1)[C@H]1CC[C@H](C)CC1` [Example 1030]: half-maximal inhibition (IC50) was put at 7 nM.

Take `[2H]C([2H])([2H])n1nccc1C(=O)N[C@H](C(=O)Nc1ncc([C@@H](CN2CCC3(COC3)C2)N2CC(F)(F)CCC2=O)s1)[C@H]1CC[C@H](C)CC1` [Example 1032]: the IC50 stood at 8 nM.

Still in this experiment, the particulars now being: Homo sapiens, IL-17A 30 ng/ml, 48 hours, Groα in supernatant.
Consider `COC[C@H](c1cnc(NC(=O)[C@@H](NC(=O)c2ccnn2C(C)C)[C@H]2CC[C@H](C)CC2)s1)N1CC(F)(F)CNC1=O` [Example 327], for which the concentration for half-maximal inhibition (IC50) turned out to be 2.5 nM.

For the compound `C[C@H]1CC[C@H]([C@H](NC(=O)C2(F)CC2)C(=O)Nc2ncc([C@@H](CN3CC4CCC(C3)O4)N3CC(F)(F)CNC3=O)s2)CC1` [Example 743], the IC50 was found to be 6 nM.

As for `[2H]C([2H])([2H])OC1CCN(C[C@H](c2cnc(NC(=O)[C@@H](NC(=O)C3(F)CC3)[C@H]3CC[C@H](C)CC3)s2)N2CC(F)(F)CNC2=O)CC1` [Example 780], the concentration for half-maximal inhibition (IC50) was found to be 10 nM.

The same experiment, now with this note: IL-17A 30 ng/ml, 48 hours, Groα in supernatant.
The compound `CCn1nccc1C(=O)NC(C(=O)Nc1ncc(C(CN2CCC(OC)C2)N2CC(F)(F)CCC2=O)s1)C1CCC(C)CC1` (stereo not shown) [Example 650] came in with an IC50 of 6 nM.
